From patent US8871755B2, “Alkene azetidine derivatives as sphingosine 1-phosphate (S1P) receptor modulators” (Allergan, Inc., priority 2013, dated 2014) come the findings set out here.

The target of this test is T1, human S1P1 receptor (Homo sapiens, UniProt P21453).
T1 construct: expressed in transfected cells; membranes were used
T1 sequence (P21453 whole entry): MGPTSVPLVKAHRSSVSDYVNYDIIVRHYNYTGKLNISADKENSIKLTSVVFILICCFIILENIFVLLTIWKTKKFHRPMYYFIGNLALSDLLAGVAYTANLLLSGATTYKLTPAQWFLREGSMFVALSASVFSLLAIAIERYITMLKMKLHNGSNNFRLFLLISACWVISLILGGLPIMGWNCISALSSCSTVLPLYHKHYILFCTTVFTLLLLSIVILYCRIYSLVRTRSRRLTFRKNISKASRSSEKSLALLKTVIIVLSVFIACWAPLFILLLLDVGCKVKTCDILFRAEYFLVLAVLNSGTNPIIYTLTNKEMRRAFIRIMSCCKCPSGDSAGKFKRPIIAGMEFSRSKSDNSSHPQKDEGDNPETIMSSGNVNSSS
Kind of test: GTP γ35S binding assay for S1P1 activity. The class given is biochemical. The conditions noted are these: activity potency from GTP γ35S binding; membranes of cells stably expressing the S1P1 receptor; 30 min at 25° C. The procedure: Compounds were synthesized and tested for S1P1 activity using the GTP γ^35S binding assay. These compounds may be assessed for their ability to activate or block activation of the human S1P1 receptor in cells stably expressing the S1P1 receptor. […] binding was measured in the medium containing (mM) HEPES 25, pH 7.4, MgCl2 10, NaCl 100, dithitothreitol 0.5, digitonin 0.003%, 0.2 nM GTP γ^35S, and 5 μg membrane protein in a volume of 150 μl. Test compounds were included in the concentration range from 0.08 to 5,000 nM unless indicated otherwise. Membranes were incubated with 100 μM 5′-adenylylimmidodiphosphate for 30 min, and subsequently with 10 μM GDP for 10 min on ice. Drug solutions and membrane were mixed, and then reactions were initiated by adding GTP γ^35S and continued for 30 min at 25° C. Reaction mixtures were filtered over Whatman GF/B filters under vacuum, and washed three times with 3 mL of ice-cold buffer (HEPES 25, pH7.4, MgCl2 10 and NaCl 100). Filters were dried and mixed with scintillant, and counted for ^35S activity using a […]. Agonist-induced GTP γ^35S binding was obtained by subtracting that in the absence of agonist. Binding data were analyzed using a non-linear regression method. In case of antagonist assay, the reaction mixture contained 10 nM S1P in the presence of test antagonist at concentrations ranging from 0.08 to 5000 nM.
With `Cc1ccc(C=C(CCCOc2ccc(CN3CC(C(=O)O)C3)cc2)c2ccsc2)cc1C` [1-(4-{[5-(3,4-dimethylphenyl)-4-(3-thienyl)pent-4-en-1-yl]oxy}benzyl)azetidine-3-carboxylic acid], a half-maximal response (EC50) required 36 nM. The result for `Cc1ccc(/C=C(\CCCOc2ccc(CN3CC(C(=O)O)C3)cc2)c2cccc(F)c2F)cc1C` [Compound 1, 1-(4-{[(4E)-4-(2,3-Difluorophenyl)-5-(3,4-dimethylphenyl)pent-4-en-1-yl]oxy}benzyl)azetidine-3-carboxylic acid] reads 480 nM; that for `Cc1ccc(/C=C(\CCCCSc2ccc(CN3CC(C(=O)O)C3)cc2)c2cc(F)cc(F)c2)cc1C` [Compound 4, 1-(4-{[(5E)-5-(3,5-difluorophenyl)-6-(3,4-dimethylphenyl)hex-5-en-1-yl]sulfanyl}benzyl)azetidine-3-carboxylic acid], 652 nM; that for `Cc1ccc(/C=C(\CCCOc2ccc(CN3CC(C(=O)O)C3)cc2)c2cccc(Cl)c2)cc1C` [Compound 5, 1-(4-{[(4E)-4-(3-Chlorophenyl)-5-(3,4-dimethylphenyl)pent-4-en-1-yl]oxy}benzyl)azetidine-3-carboxylic acid], 27.9 nM. `Cc1ccc(/C=C(\CCCOc2ccc(CN3CC(C(=O)O)C3)cc2)c2cc(F)cc(F)c2)cc1C` [Compound 6, 1-(4-{[(4E)-4-(3,5-Difluorophenyl)-5-(3,4-dimethylphenyl)pent-4-en-1-yl]oxy}benzyl)azetidine-3-carboxylic acid]: the EC50 came out at 4.21 nM.

`Cc1ccc(/C=C(\CCC[S+]([O-])c2ccc(CN3CC(C(=O)O)C3)cc2)c2cc(F)cc(F)c2)cc1C` (stereo not drawn) [Compound 7]: a half-maximal response (EC50) required 158 nM.

Usually EC50 stands for the concentration giving half of the maximal effect.
